Data from patent publication US9045423B2, “Prophylactic and/or therapeutic agent for anemia comprising tetrahydroquinoline compound as active ingredient” (KOWA COMPANY, LTD., priority 2009, dated 2015).

Experiments:
[1] = tested on: HepG2 cells derived from human liver cancer; assay: EPO production in HepG2 cells (EPO ELISA of culture supernatant); format: cell-based; settings: Homo sapiens; for activity at 3 µM: HepG2, 3 μM test compound, 48 hrs, 4% oxygen, non-stimulated state without compound = 100%, read-out: amount of EPO production, % of control (3 μM)
Experimental: HepG2 cells derived from human liver cancer were inoculated in an amount of 5×10^4 cells per well on a 48-well plate, using minimum essential medium (MEM, Sigma-Aldrich Company) containing 10% bovine fetal serum. On the next day, the medium was exchanged with Dulbecco's modified eagle medium (DMEM (Sigma-Aldrich Company)) containing 10% bovine fetal serum without Phenol Red. Then, a test compound dissolved in DMSO was added thereto to obtain a final concentration of 3 μM or 10 μM, and the amount of medium was adjusted to 400 μL per well. The cells were incubated for 48 hrs in a CO2 incubator in which the oxygen concentration was adjusted to 4%, and then the culture supernatant was collected. The EPO concentration in the culture supernatant was immediately measured using an EPO ELISA kit (Roche Diagnostics GmbH). The method was carried out according to the operation manual.
The amount of EPO production in a non-stimulated state where no compounds were added, was designated as 100%, and the amount of EPO production (% of control) induced by each of the compounds was determined.

[2] = tested on: K562 cells, a human proerythroblast cell line; assay: Hemoglobin production in K562 cells (fluorescence of the porphyrin ring); format: cell-based; settings: Homo sapiens, K562, 144 h; 6 μM test compound, 3 + 3 days incubation; non-stimulated state without compound = 100; read-out: amount of hemoglobin, % of control (6 μM)
How it was run: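 Cells at 1×10^5 cells/mL in RPMI-1640 with 10% serum were dosed with compound and grown 3 days at 37°C, then 3 more days after a medium change. Per 3×10^5 cells, hemoglobin was measured as porphyrin fluorescence after boiling 30 min in 2 M oxalic acid. Values are expressed as % of unstimulated control.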

Question: With `CC(=O)N1c2ccc(C(=O)O)cc2C(Nc2ccc(-c3ncco3)cc2)CC1C` (stereo not drawn) [Compound 168, 1-Acetyl-2-methyl-4-{[4-(oxazol-2-yl)phenyl]-amino}-1,2,3,4-tetrahydroquinoline-6-carboxylic acid] as the compound, how does the activity at 3 µM [1] read?
Answer: 144%

Question: And the activity at 6 µM [2]?
Answer: 204%

Question: `CC(=O)N1c2ccc(C(N)=O)cc2C(Nc2ccc(-c3ncco3)cc2)CC1C` (stereo not drawn) [Compound 169, 1-Acetyl-2-methyl-4-{[4-(oxazol-2-yl)phenyl]amino}-1,2,3,4-tetrahydroquinoline-6-carboxamide] was tested. Which activity at 10 µM ([1]; HepG2, 48 h, final concentration 10 μM, non-stimulated state = 100%, read-out: enhancement of EPO production) did it give?
Answer: 120%

Question: What about the activity at 6 µM [2] of the same compound?
Answer: 243%

Question: What does the source list for `CCOC(=O)c1ccc2c(c1)C(Nc1ccc(-c3cnns3)cc1)CC(C)N2C(C)=O` (stereo not drawn) [Compound 171, Ethyl 1-Acetyl-2-methyl-4-{[4-(1,2,3-thiadiazol-5-yl)-phenyl]amino}-1,2,3,4-tetrahydroquinoline-6-carboxylate]?
Answer: activity at 3 µM [1]: 333%; activity at 6 µM [2]: 243%

Question: With `CC(=O)N1c2ccc(C(=O)O)cc2C(Nc2ccc(-c3cnns3)cc2)CC1C` (stereo not drawn) [Compound 172, 1-Acetyl-2-methyl-4-{[4-(1,2,3-thiadiazol-5-yl)-phenyl]amino}-1,2,3,4-tetrahydroquinoline-6-carboxylic acid] as the compound, how does the activity at 3 µM [1] read?
Answer: 152%

Question: And the activity at 6 µM [2]?
Answer: 168%

Question: Which activity at 3 µM [1] does the source give for `CC(=O)N1c2ccc(C(N)=O)cc2C(Nc2ccc(-c3cnns3)cc2)CC1C` (stereo not drawn) [Compound 173, 1-Acetyl-2-methyl-4-{[4-(1,2,3-thiadiazol-5-yl)-phenyl]amino}-1,2,3,4-tetrahydroquinoline-6-carboxamide] here?
Answer: 323%

Question: What about the activity at 6 µM [2] of the same compound?
Answer: 158%

Question: What does the source list for `CNC(=O)c1ccc2c(c1)C(Nc1ccc(-c3cnns3)cc1)CC(C)N2C(C)=O` (stereo not drawn) [Compound 174, 1-Acetyl-N,2-dimethyl-4-{[4-(1,2,3-thiadiazol-5-yl)-phenyl]amino}-1,2,3,4-tetrahydroquinoline-6-carboxamide]?
Answer: activity at 3 µM [1]: 218%; activity at 6 µM [2]: 163%

Question: Which results are given for `CC(=O)NC(=O)c1ccc2c(c1)C(Nc1ccc(N3CCOCC3)cc1)CC(C)N2C(C)=O` (stereo not drawn) [Compound 175, N,1-diacetyl-2-methyl-4-[(4-morpholinophenyl)amino]-1,2,3,4-tetrahydroquinoline-6-carboxamide]?
Answer: activity at 3 µM [1]: 270%; activity at 6 µM [2]: 275%

Question: With `CC(=O)N1c2ccc(C(=O)NC(C)C)cc2C(Nc2ccc(N3CCOCC3)cc2)CC1C` (stereo not drawn) [Compound 176, 1-Acetyl-N-isopropyl-2-methyl-4-[(4-morpholinophenyl)-amino]-1,2,3,4-tetrahydroquinoline-6-carboxamide] as the compound, how does the activity at 3 µM [1] read?
Answer: 325%

Question: What about the activity at 6 µM [2] of the same compound?
Answer: 355%

Question: What does the source list for `CC(=O)N1c2ccc(C(=O)Nc3ccccn3)cc2C(Nc2ccc(N3CCOCC3)cc2)CC1C` (stereo not drawn) [Compound 177, 1-Acetyl-2-methyl-4-[(4-morpholinophenyl)-amino]-N-(pyridin-2-yl)-1,2,3,4-tetrahydroquinoline-6-carboxamide]?
Answer: activity at 3 µM [1]: 265%; activity at 6 µM [2]: 353%

Question: With `CC(=O)N1c2ccc(C(=O)NC3CCCCC3)cc2C(Nc2ccc(N3CCOCC3)cc2)CC1C` (stereo not drawn) [Compound 178, 1-Acetyl-N-cyclohexyl-2-methyl-4-[(4-morpholinophenyl)-amino]-1,2,3,4-tetrahydroquinoline-6-carboxamide] as the compound, how does the activity at 3 µM [1] read?
Answer: 370%

Question: What about the activity at 6 µM [2] of the same compound?
Answer: 388%

Question: With `CC(=O)N1c2ccc(C(=O)O)cc2C(Nc2cccc(N3CCOCC3)c2)CC1C` (stereo not drawn) [Compound 179, 1-Acetyl-2-methyl-4-[(3-morpholinophenyl)-amino]-1,2,3,4-tetrahydroquinoline-6-carboxylic acid] as the compound, how does the activity at 3 µM [1] read?
Answer: 138%

Question: And the activity at 6 µM [2]?
Answer: 124%

Question: What does the source list for `CC(=O)N1c2ccc(C(N)=O)cc2C(Nc2cccc(N3CCOCC3)c2)CC1C` (stereo not drawn) [Compound 181, 1-Acetyl-2-methyl-4-[(3-morpholinophenyl)amino]-1,2,3,4-tetrahydroquinoline-6-carboxamide]?
Answer: activity at 3 µM [1]: 162%; activity at 6 µM [2]: 382%
